Activity calls are given as the source filed them. No cut-off for these calls is given here.
Key:
[1] = Half life in male SPF-ICR mouse at 10 mg/kg, ip measured upto 24 hrs by LC-MS/MS analysis; type: ADME, organism-based; details: in vivo
[2] = Tmax in male SPF-ICR mouse at 10 mg/kg, ip measured upto 24 hrs by LC-MS/MS analysis; type: ADME, organism-based; details: in vivo
[3] = Cmax in male SPF-ICR mouse at 10 mg/kg, ip measured upto 24 hrs by LC-MS/MS analysis; type: ADME, organism-based; details: in vivo
[4] = AUC (0 to t) in male SPF-ICR mouse at 10 mg/kg, ip measured upto 24 hrs by LC-MS/MS analysis; type: ADME, organism-based; details: in vivo
[5] = AUC (0 to infinity) in male SPF-ICR mouse at 10 mg/kg, ip measured upto 24 hrs by LC-MS/MS analysis; type: ADME, organism-based; details: in vivo
[6] = MRT (0 to t) in male SPF-ICR mouse at 10 mg/kg, ip measured upto 24 hrs by LC-MS/MS analysis; type: ADME, organism-based; details: in vivo
[7] = MRT (0 to infinity) in male SPF-ICR mouse at 10 mg/kg, ip measured upto 24 hrs by LC-MS/MS analysis; type: ADME, organism-based; details: in vivo
[8] = Clearance in male SPF-ICR mouse at 10 mg/kg, ip measured upto 24 hrs by LC-MS/MS analysis; type: ADME, organism-based; details: in vivo
[9] = tested on: MDA-MB-231; experiment: Antitumor activity against human MDA-MB-231 cells xenografted in female Balb/c nude mouse assessed as tumor growth inhibition at 12.5 mg/kg/day, ip qd administered for 28 days relative to control; type: functional; details: MDA-MB-231, 672 h, time 28 day, read-out: TGI
[10] = tested on: MDA-MB-231; experiment: Antitumor activity against human MDA-MB-231 cells xenografted in female Balb/c nude mouse assessed as tumor growth inhibition at 25 mg/kg/day, ip qd administered for 28 days relative to control; type: functional; details: MDA-MB-231, 672 h, time 28 day, read-out: TGI
[11] = tested on: MDA-MB-231; experiment: Antitumor activity against human MDA-MB-231 cells xenografted in female Balb/c nude mouse assessed as tumor growth inhibition at 50 mg/kg/day, ip qd administered for 28 days relative to control; type: functional; details: Mus musculus, MDA-MB-231, 672 h, time 28 day, read-out: TGI
[12] = tested on: Olaparib-resistant HCT116; experiment: Antitumor activity against human Olaparib-resistant HCT116 cells xenografted in female Balb/c nude mouse assessed as tumor growth inhibition at 5 mg/kg/day, iv qd administered for 21 days relative to control; type: functional; details: Olaparib-resistant HCT116, 504 h, time 21 day, read-out: TGI
[13] = tested on: Olaparib-resistant HCT116; experiment: Antitumor activity against human Olaparib-resistant HCT116 cells xenografted in female Balb/c nude mouse assessed as tumor growth inhibition at 25 mg/kg/day, ip qd administered for 21 days relative to control; type: functional; details: Olaparib-resistant HCT116, 504 h, time 21 day, read-out: TGI
[14] = tested on: Olaparib-resistant HCT116; experiment: Antitumor activity against human Olaparib-resistant HCT116 cells xenografted in female Balb/c nude mouse assessed as tumor growth inhibition at 50 mg/kg/day, ip qd administered for 21 days relative to control; type: functional; details: Mus musculus, Olaparib-resistant HCT116, 504 h, time 21 day, read-out: TGI
[15] = tested on: Olaparib-resistant HCT116; experiment: Antitumor activity against human Olaparib-resistant HCT116 cells xenografted in female Balb/c nude mouse assessed as tumor growth inhibition at 100 mg/kg/day, ip qd administered for 21 days relative to control; type: functional; details: Olaparib-resistant HCT116, 504 h, time 21 day, read-out: TGI
[16] = Toxicity in female Balb/c nude mouse xenografted with human MDA-MB-231 cells assessed as body weight loss at 12.5 to 50 mg/kg, ip qd administered for 28 days; type: organism-based; details: in vivo, 672 h, dose 12.5-50 mg/kg, time 28 day
[17] = Toxicity in female Balb/c nude mouse xenografted with human MDA-MB-231 cells assessed as adverse effects at 12.5 to 50 mg/kg, ip qd administered for 28 days; type: organism-based; details: in vivo, 672 h, dose 12.5-50 mg/kg, time 28 day
[18] = Toxicity in female Balb/c nude mouse xenografted with human Olaparib-resistant HCT116 cells assessed as body weight loss at 25 to 100 mg/kg, ip qd administered for 21 days; type: organism-based, HCT-116; details: in vivo, 504 h, dose 25-100 mg/kg, time 21 day
[19] = Toxicity in female Balb/c nude mouse xenografted with human Olaparib-resistant HCT116 cells assessed as adverse effects at 25 to 100 mg/kg, ip qd administered for 21 days; type: organism-based, HCT-116; details: in vivo, 504 h, dose 25-100 mg/kg, time 21 day
[20] = tested on: MDA-MB-231; experiment: Antiproliferative activity against human MDA-MB-231 cells harboring wild type BRCA and c-Met amplification assessed as inhibition of cell growth incubated for 7 days by MTT assay; type: functional, cell-based; details: MDA-MB-231, 168 h
[21] = tested on: MDA-MB-468; experiment: Antiproliferative activity against human MDA-MB-468 cells harboring wild type BRCA1/2, HR-proficient and non-c-Met amplification assessed as inhibition of cell growth incubated for 7 days by MTT assay; type: functional, cell-based; details: MDA-MB-468, 168 h
[22] = Antiproliferative activity against human Olaparib-resistant HCC1937 cells harboring BRCA1 mutant and PARP1 overexpression assessed as inhibition of cell growth incubated for 7 days by MTT assay; type: functional, cell-based; details: Olaparib-resistant HCC1937, 168 h
[23] = tested on: Olaparib-resistant HCT116; experiment: Antiproliferative activity against human Olaparib-resistant HCT116 cells harboring BRCA2 mutant assessed as inhibition of cell growth incubated for 7 days by MTT assay; type: functional, cell-based; details: Olaparib-resistant HCT116, 168 h
[24] = tested on: MDA-MB-231; experiment: Induction of apoptosis in human MDA-MB-231 cells assessed as live cells at 0.5 uM incubated for 4 days by Annexin V-FITC/PI staining based flow cytometry analysis (reference value: 94.6%); type: functional; details: time 4 day
[25] = tested on: MDA-MB-231; experiment: Induction of apoptosis in human MDA-MB-231 cells assessed as early apoptotic cells at 0.5 uM incubated for 4 days by Annexin V-FITC/PI staining based flow cytometry analysis (reference value: 3.88%); type: functional; details: time 4 day
[26] = tested on: MDA-MB-231; experiment: Induction of apoptosis in human MDA-MB-231 cells assessed as late apoptotic cells at 0.5 uM incubated for 4 days by Annexin V-FITC/PI staining based flow cytometry analysis (reference value: 0.81%); type: functional; details: time 4 day
[27] = tested on: MDA-MB-231; experiment: Induction of apoptosis in human MDA-MB-231 cells assessed as dead cells at 0.5 uM incubated for 4 days by Annexin V-FITC/PI staining based flow cytometry analysis (reference value: 0.72%); type: functional; details: time 4 day
[28] = tested on: MDA-MB-231; experiment: Induction of apoptosis in human MDA-MB-231 cells assessed as live cells at 0.5 uM incubated for 4 days in presence of olaparib at 1 uM by Annexin V-FITC/PI staining based flow cytometry analysis (reference value: 94.6%); type: functional; details: time 4 day
[29] = tested on: MDA-MB-231; experiment: Induction of apoptosis in human MDA-MB-231 cells assessed as early apoptotic cells at 0.5 uM incubated for 4 days in presence of olaparib at 1 uM by Annexin V-FITC/PI staining based flow cytometry analysis (reference value: 3.88%); type: functional; details: time 4 day
[30] = tested on: MDA-MB-231; experiment: Induction of apoptosis in human MDA-MB-231 cells assessed as late apoptotic cells at 0.5 uM incubated for 4 days in presence of olaparib at 1 uM by Annexin V-FITC/PI staining based flow cytometry analysis (reference value: 0.81%); type: functional; details: time 4 day
[31] = tested on: MDA-MB-231; experiment: Induction of apoptosis in human MDA-MB-231 cells assessed as dead cells at 0.5 uM incubated for 4 days in presence of olaparib at 1 uM by Annexin V-FITC/PI staining based flow cytometry analysis (reference value: 0.72%); type: functional; details: time 4 day
[32] = tested on: MDA-MB-231; experiment: Antitumor activity against human MDA-MB-231 cells xenografted in female Balb/c nude mouse assessed as tumor growth inhibition at 25 mg/kg/day, po qd administered for 28 days relative to control; type: functional; details: MDA-MB-231, 672 h, time 28 day, read-out: TGI
[33] = tested on: MDA-MB-231; experiment: Antitumor activity against human MDA-MB-231 cells xenografted in female Balb/c nude mouse assessed as tumor growth inhibition at 25 mg/kg/day, po qd administered for 28 days in presence of olaparib 50 mg/kg, ip qd relative to control; type: functional; details: MDA-MB-231, 672 h, time 28 day, read-out: TGI
[34] = tested on: Olaparib-resistant HCT116; experiment: Antitumor activity against human Olaparib-resistant HCT116 cells xenografted in female Balb/c nude mouse assessed as tumor growth inhibition at 25 mg/kg/day, po qd administered for 21 days relative to control; type: functional; details: Olaparib-resistant HCT116, 504 h, time 21 day, read-out: TGI
[35] = tested on: Olaparib-resistant HCT116; experiment: Antitumor activity against human Olaparib-resistant HCT116 cells xenografted in female Balb/c nude mouse assessed as tumor growth inhibition at 25 mg/kg/day, po qd administered for 21 days in presence of olaparib at 50 mg/kg/day, ip qd relative to control; type: functional; details: Olaparib-resistant HCT116, 504 h, time 21 day, read-out: TGI
[36] = tested on: MDA-MB-231; experiment: Antitumor activity against human MDA-MB-231 cells xenografted in female Balb/c nude mouse assessed as reduction in tumor weight at 25 mg/kg/day, po qd administered for 28 days; type: functional, organism-based; details: time 28.0 day
[37] = tested on: MDA-MB-231; experiment: Antitumor activity against human MDA-MB-231 cells xenografted in female Balb/c nude mouse assessed as reduction in tumor weight at 25 mg/kg/day, po qd administered for 28 days in presence of olaparib 50 mg/kg, ip qd; type: functional, organism-based; details: time 28.0 day
[38] = tested on: Olaparib-resistant HCT116; experiment: Antitumor activity against human Olaparib-resistant HCT116 cells xenografted in female Balb/c nude mouse assessed as reduction in tumor weight at 25 mg/kg/day, po qd administered for 21 days; type: functional, organism-based; details: time 21.0 day

## Cl.O=C(c1cc(Cc2n[nH]c(=O)c3ccccc23)ccc1F)N1CCN(c2ccc3c(OCCn4nc(-c5cccnc5)ccc4=O)ccnc3c2)CC1
[1]
  half-life: 1.42 h
[2]
  Tmax: 0.25 h
[3]
  Cmax: 152 ng/mL
[4]
  AUC(0-t) at 24 h: 95.4 ng·h/mL
[5]
  AUC(0-inf): 96.7 ng·h/mL
[6]
  MRT last at 24 h: 1.67 h
[7]
  MRT inf: 1.77 h
[8]
  CL/F: 2020 mL/min/kg
[9]
  inhibition in vivo at 12.5 mg/kg/day: 49%
[10]
  inhibition in vivo at 25 mg/kg/day: 60%
[11]
  inhibition in vivo at 50 mg/kg/day: 77%
[12]
  inhibition in vivo at 5 mg/kg/day: 59%
[13]
  inhibition in vivo at 25 mg/kg/day: 62%
[14]
  inhibition in vivo at 50 mg/kg/day: 64%
[15]
  inhibition in vivo at 100 mg/kg/day: 70%
[16]
  Activity: Non-Toxic
[17]
  Activity: Non-Toxic
[18]
  Activity: Non-Toxic
[19]
  Activity: Non-Toxic

## C[C@@H](Oc1cc(-c2cnn(C3CCNCC3)c2)cnc1N)c1c(Cl)ccc(F)c1Cl [CRIZOTINIB]
[20]
  IC50: 8.37 µM
[21]
  IC50: 4.54 µM
[22]
  IC50: 5.23 µM
[23]
  IC50: 3.15 µM
[24]
  Activity: 90.9%
[25]
  Activity: 4.75%
[26]
  Activity: 2.08%
[27]
  Activity: 2.23%
[28]
  Activity: 76.9%
[29]
  Activity: 7.12%
[30]
  Activity: 6.57%
[31]
  Activity: 9.45%
[32]
  inhibition in vivo at 25 mg/kg/day: 6%
[33]
  inhibition in vivo at 25 mg/kg/day: 69%
[34]
  inhibition in vivo at 25 mg/kg/day: 21%
[35]
  inhibition in vivo at 25 mg/kg/day: 48%
[36]
  Activity: Active
[37]
  Activity: Active
[38]
  Activity: Active
